These results are taken from the METLIN SMRT retention time set (Domingo-Almenara et al. 2019).

The nature of the data set: gradient 5% acetonitrile 3 min, to 50% in 2 min, to 85% in 15 min, held 3 min, 100 µL/min. Conditions: column: Zorbax Extend-C18 2.1 x 50 mm; eluents: water / acetonitrile, 0.1% formic acid. The method in brief: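 Standards, all pure, were combined into mixtures of ~100 molecules and run at 100 μL/min on a Zorbax Extend-C18 column (2.1 × 50 mm, 1.8 μm) with water and acetonitrile, each containing 0.1% formic acid. A coupled quadrupole time-of-flight mass spectrometer operated in positive and negative ionization mode. Retention time values come from computationally picked adduct peaks, each inspected manually.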
With `CCOCCCNC(=O)C1(C)Cn2c(ccc2-c2ccco2)C(=O)N1c1ccc(F)cc1` (centres undefined), the RP-LC retention time came to 808 s.

In turn, `OCC1CN(c2ncccn2)CC12CCN(Cc1ccc(Cl)cc1F)CC2` (centres undefined) displayed an RP-LC retention time of 590 s.

For `CC(C)c1cccc(NC(=O)C2CC(=O)N(c3cccc(NC(=O)C4CCC4)c3)C2)c1` (centres undefined), the RP-LC retention time is 957 s.

`CN(C)S(=O)(=O)N1CCOc2ccc(CCC(=O)NCC3CC3)cc2C1` returned an RP-LC retention time of 767 s.

In the case of `O=C(O)c1cc(-c2ccc(Cl)s2)nc2ccccc12`, the RP-LC retention time is 1070 s.

Regarding `CCc1ccc2[nH]c3c(c(=O)c2c1)CN(CC(=O)NCc1ccccc1OC)CC3`, the RP-LC retention time is 621 s.

`COC(=O)c1cc2c(=O)n(-c3nc4cc(C)c(C)cc4s3)ccc2nc1C` came in with an RP-LC retention time of 1420 s.

`COc1cc(-n2nnc(C(=O)NCc3ccco3)c2N)ccc1Cl` showed an RP-LC retention time of 765 s.

Compound `CS(=O)(=O)N1CCc2ccc(C(=O)NCCN3CCC(N4CCCCC4)CC3)cc21` gave an RP-LC retention time of 583 s.

For the compound `CCOc1ccc(C(=O)N2CCN(c3nc(CN4CCOCC4)cs3)CC2)cc1`, the RP-LC retention time turned out to be 615 s.

Regarding `O=S(=O)(c1cccc(-c2nnc(-c3ccc(Cl)cc3)o2)c1)N1CCOCC1`, the RP-LC retention time was 995 s.

Compound `Cc1ccc(NC(=O)C2CCCN(c3nc4ccsc4c(=O)n3Cc3ccc(F)cc3)C2)cc1` (centres undefined) came in with an RP-LC retention time of 1030 s.

As to `Cc1csc(-c2cc(S(=O)(=O)NCCC3=CCCCC3)cn2CC(=O)N2CCCC2)n1`, the RP-LC retention time came to 1030 s.

`Cc1ccccc1CC(=O)Nc1ccc2c(c1)Sc1ncccc1C(=O)N2C(C)C`: the RP-LC retention time is 912 s.

Take `COc1ccc(C(=O)N2CCC[C@H]2c2nc(C(C)C)n[nH]2)c(OC)n1`: the RP-LC retention time came out at 590 s.

`Cc1nnc(-c2ccc3ccn(CC(=O)NCCCc4ccccc4)c3c2)o1` returned an RP-LC retention time of 807 s.

Regarding `CC(=O)c1ccc(N2CCN(C(=O)c3csc(-c4ccc(C)n4C)n3)CC2)cc1`, the RP-LC retention time was found to be 955 s.

Compound `Cc1ccc(C)c(NC(=O)CN2CCN(C(=O)Nc3ccc(Br)cc3)CC2=O)c1` gave an RP-LC retention time of 789 s.

On to `O=c1nc(-c2ccccc2)c2ccccc2[nH]1`, for which the RP-LC retention time was 618 s.

As for `Cc1ccc(-c2cc3c(=O)n(Cc4noc(CN5CCCCC5C)n4)ccn3n2)cc1` (centres undefined), the RP-LC retention time came out at 674 s.

`Cc1cc(Cl)ccc1NC(=O)c1cc(C2CC2)on1` returned an RP-LC retention time of 1040 s.

On to `COCCOCC(=O)N1[C@@H]2CC[C@H]1CC(NC(=O)c1cnc(C)cn1)C2` (some centres undefined), for which the RP-LC retention time came out at 579 s.

`Cc1ccc(Cl)cc1N1CCN(c2cc(C(=O)O)c3cc(NC(=O)C4CCCC4)ccc3n2)CC1` showed an RP-LC retention time of 851 s.

`CC(C)n1c(CCNC(=O)c2ccc(F)cc2F)nc2cccnc21`: the RP-LC retention time stood at 671 s.

With `Cc1noc(-c2ccc(NC(=O)COc3ccc(Cl)cc3Cl)cc2)n1`, the RP-LC retention time amounted to 1030 s.

With `O=C(Nc1ccccc1F)C1CC(=O)N(c2ccc3c(c2)CCN3C(=O)C2CC2)C1` (centres undefined), the RP-LC retention time is 749 s.

`O=C1CCN([C@@H]2O[C@H](CO)[C@@H](O)[C@H]2O)C(=O)N1` gave an RP-LC retention time of 933 s.

On to `COC(=O)C1=C(CN2CCOCC2)NC(=O)NC1c1ccc(C)cc1C` (centres undefined), for which the RP-LC retention time is 609 s.

`Cc1nc(C2(C)CCN(S(=O)(=O)c3ccccc3Cl)CC2)no1` registered an RP-LC retention time of 911 s.

For the compound `O=C(NCc1ccc(Br)cc1)C(=O)c1c[nH]c2ccccc12`, the RP-LC retention time came to 995 s.

Compound `O=C1CCc2cc(NS(=O)(=O)Cc3ccccc3Cl)ccc2N1` displayed an RP-LC retention time of 783 s.

In turn, `O=C(c1ccco1)N1CCCCC1c1nc(C2CC2)n[nH]1` (centres undefined) returned an RP-LC retention time of 625 s.

For the compound `CC(C)Oc1ccc(-c2noc(CN3N=NC4C(=O)N(c5ccc6c(c5)CCC6)C(=O)C43)n2)cc1` (centres undefined), the RP-LC retention time is 1180 s.

Consider `O=C(NCCn1nc(-c2cccs2)ccc1=O)c1cc(-c2cccs2)[nH]n1`, for which the RP-LC retention time worked out at 573 s.

With `Cc1ccc(CNC(=O)CN2C(=O)C3CCCCN3c3ccc(C(=O)N4CCCC4)cc32)o1` (centres undefined), the RP-LC retention time worked out at 664 s.

Consider `CCc1noc(-c2ccc(-n3cnc(C(=O)N4CCOCC4)c3)nc2)n1`, for which the RP-LC retention time was determined as 691 s.

`O=C(Nc1ccc(F)cc1Cl)c1cc2n(n1)CCCC2` yielded an RP-LC retention time of 1010 s.

Take `CCCNC(=O)c1nnc(-c2ccc(S(=O)(=O)N3CCCC3)cc2)o1`: the RP-LC retention time came to 824 s.

Compound `Cc1cc(=O)n2nc(-c3ccc(Cl)cc3)nc2n1CC(=O)NC(C)C` came in with an RP-LC retention time of 744 s.

`O=C(CSc1ncnc2ccccc12)N1CCCc2ccccc21` registered an RP-LC retention time of 844 s.

`Cc1ccc(CNC(=O)CN2CCN(C(=O)Nc3ccc(Br)cc3)CC2=O)o1` yielded an RP-LC retention time of 748 s.

In turn, `O=C(Nc1ccc2c(c1)OCO2)C1CC(=O)N(CCc2c[nH]c3ccc(F)cc23)C1` (centres undefined) returned an RP-LC retention time of 750 s.

Take `COC(=O)c1cc2n(n1)CC(C)(C(=O)NC1CCCC1)N(c1ccccc1C)C2=O` (centres undefined): the RP-LC retention time is 801 s.

Take `COc1cc(NC(=O)N2c3ccccc3CC2c2nc(C3CC3)no2)cc(OC)c1` (centres undefined): the RP-LC retention time was found to be 1030 s.

In the case of `COc1nn(C)cc1C(=O)Nc1cccc(-c2cn3c(n2)SCC3)c1`, the RP-LC retention time is 566 s.

In the case of `CCOC(=O)N1CCN(C(=O)CSc2nc(=O)[nH]c3c2CCC3)CC1`, the RP-LC retention time stood at 574 s.

On to `CCc1nc2ccccc2n1CC(O)COc1cc(C)cc(C)c1` (centres undefined), for which the RP-LC retention time turned out to be 733 s.

As for `CCNC(=O)c1sc(Nc2cccc(C)n2)nc1C`, the RP-LC retention time was found to be 657 s.

The compound `Cc1ccc(Cl)cc1N1CCN(c2cc(C(=O)O)c3cc(NC(=O)CC(C)C)ccc3n2)CC1` gave an RP-LC retention time of 828 s.

In turn, `O=C(CC(c1ccc(F)cc1)N1Cc2ccccc2C1=O)NCCCN1CCCC1` (centres undefined) came in with an RP-LC retention time of 619 s.

Compound `Cc1ccc(-c2noc(Cc3nnc(-c4cccc(Br)c4)o3)n2)cc1C` showed an RP-LC retention time of 1230 s.

As to `COc1cc(C(=O)Nc2c(-c3ccccc3)nc3ccccn23)cc(OC)c1OC`, the RP-LC retention time worked out at 636 s.

On to `CCOc1cccc(CNc2ncc(C(=O)O)c(C)n2)c1`, for which the RP-LC retention time worked out at 758 s.

For the compound `CCN1C(=O)C2CCCCN2c2ccc(C(=O)N3CCN(c4ccccc4)CC3)cc21` (centres undefined), the RP-LC retention time came to 974 s.

For the compound `CCN1CCN(CCCNC(=O)c2ccc(CS(=O)c3ccccc3Cl)o2)CC1` (centres undefined), the RP-LC retention time came to 567 s.

For `CN1C(=O)c2cc(C(=O)NCc3ccccc3F)nn2CC1(C)C(=O)NC1CCCC1` (centres undefined), the RP-LC retention time stood at 698 s.

In turn, `Cc1ccccc1C(=O)Nc1ccc2c(c1)Sc1ncccc1C(=O)N2C(C)C` returned an RP-LC retention time of 872 s.

For `Cc1cc(C(F)F)n2nc(C(=O)Nc3ccc(F)cc3C)nc2n1`, the RP-LC retention time was found to be 811 s.

On to `COc1ccc(-n2c(=O)n(C)c(=O)c3cc(C(=O)Nc4ccccc4OC)cnc32)cc1`, for which the RP-LC retention time was found to be 892 s.

As for `CC1Oc2ccc(-c3csc(NC(=O)c4cccnc4)n3)cc2NC1=O` (centres undefined), the RP-LC retention time was 704 s.

Take `Cc1ccnc(NS(=O)(=O)c2ccc(NC(=O)c3ccc([N+](=O)[O-])s3)cc2)n1`: the RP-LC retention time amounted to 699 s.

The compound `Cc1cccc(N2CCN(C(=O)C3CCN(C(=O)C4Sc5ccccc5NC4=O)CC3)CC2)c1C` (centres undefined) returned an RP-LC retention time of 918 s.

On to `Cc1nc(Nc2ccc(F)cn2)sc1C(=O)N1CCN(c2ccccn2)CC1`, for which the RP-LC retention time worked out at 602 s.

For the compound `C=CCOc1c(CCC)cc(CCC)cc1C(N)=O`, the RP-LC retention time worked out at 1130 s.

`CN(C)C(=O)c1ccc2c(c1)N(CC(=O)N1CCN(c3ccccc3)CC1)C(=O)C1CCCCN21` (centres undefined): the RP-LC retention time stood at 778 s.

In turn, `Cc1ccc(NC(=O)N2CCCC2c2nc(-c3ccccc3)no2)c(Cl)c1` (centres undefined) returned an RP-LC retention time of 1100 s.

For the compound `C[C@@H](NC(=O)c1ccc(F)cc1)C(=O)NCc1cscn1`, the RP-LC retention time came to 627 s.

`CCCc1noc(-c2cccnc2N2CCCN(Cc3ccc(F)cc3Cl)CC2)n1` came in with an RP-LC retention time of 748 s.

The compound `CCc1ccc(CNC(=O)Cn2c(CC)nc3c(c2=O)CN(Cc2ccccc2)CC3)cc1` returned an RP-LC retention time of 707 s.

The compound `CC(C)Cn1c(=O)c(-c2ccc(C(=O)N3CCC4(CC3)OCCO4)cc2)nc2ccccc21` registered an RP-LC retention time of 987 s.

In turn, `O=C(NC1(c2nc(-c3cnccn3)no2)CCCCC1)c1ccco1` had an RP-LC retention time of 712 s.

As for `CC(=O)c1cccc(NC(=O)Cn2c(-c3ccc(F)cc3)nc(C)cc2=O)c1`, the RP-LC retention time is 963 s.

Consider `COc1cccc(C(=O)NC2CCN(c3cc(-c4cccs4)[nH]n3)C2)c1` (centres undefined), for which the RP-LC retention time was 700 s.

`O=C(c1ccc(N2CCCC2=O)cc1)N1CCCn2nc(-c3ccc(F)cc3)cc2C1` yielded an RP-LC retention time of 708 s.

On to `CC(C)c1noc(C2(NC(=O)c3ccccc3F)CCCCC2)n1`, for which the RP-LC retention time was 1020 s.

`Cc1ccc(N2CCC(NC(=O)c3ccc(C)s3)C2=O)cc1` (centres undefined) displayed an RP-LC retention time of 842 s.

Consider `COc1ccc(OC)c(S(=O)(=O)NCCN2CCN(c3ccccc3F)CC2)c1`, for which the RP-LC retention time was determined as 588 s.

In turn, `Cc1c(C(=O)N2CCc3nc(NC(=O)C4CCCO4)sc3C2)cnn1-c1ccccc1` (centres undefined) had an RP-LC retention time of 665 s.

Regarding `CSc1cccc(NC(=O)Cn2c(N3CCC(C)CC3)nc(C)cc2=O)c1`, the RP-LC retention time came to 765 s.
